Results on 16 molecules are retold here after ChEMBL document CHEMBL1150484, “Structure-based design of achiral anthranilamides as P2/P2 surrogates for symmetry-based HIV protease inhibitors: design, synthesis, X-ray structure, enzyme inhibition and antiviral activity” (Bioorg Med Chem Lett, 1995).

One series relates to CCRF-CEM. Description: Concentration required to produce 50 percent inhibition of HIV-1 infection in CEM cells. Conditions: Homo sapiens. It is filed as functional, cell-based.
Series [1] can be described thus: Partition coefficient (logP). Conditions: octanol/water. Type of series: physicochemical.
For series [2], the target named is T1, Human immunodeficiency virus type 1 protease (Human immunodeficiency virus 1, UniProt Q72874). Description: Tested for inhibition of HIV protease using fluorogenic substrate.
Series [3] has as its target T1, Human immunodeficiency virus type 1 protease. Description: Tested for inhibition of HIV protease using fluorogenic substrate; insoluble.
Series [4] is described as follows: Tested for cytotoxicity in HIV-1 infected human T-lymphocyte cell culture. Type of series: functional. Particulars: read-out: TC50 (the source's name).

Where only a bound is given, the exact number is not on record here.

As usually defined, the EC50 is the concentration that produces a half-maximal response. The low end stands for greater potency, the high end for weaker potency. The logP is the decadic logarithm of the partition coefficient of the neutral form, usually between octanol and water. For `O=C(Nc1ccccc1C(=O)N[C@@H](Cc1ccccc1)[C@H](O)[C@H](O)[C@H](Cc1ccccc1)NC(=O)c1ccccc1NC(=O)OCc1ccccc1)OCc1ccccc1`, the EC50 with CCRF-CEM was above 100000 nM. The logP in series [1] (read-out: logP) turned out to be 8.16.
A word on the Ki: it is a dissociation constant, usually derived from enzyme kinetics or from competition with a known ligand. Take `Cc1nccnc1C(=O)Nc1ccccc1C(=O)N[C@@H](Cc1ccccc1)[C@H](O)[C@H](O)[C@H](Cc1ccccc1)NC(=O)c1ccccc1NC(=O)c1nccnc1C`: the Ki in series [2] is above 10000 nM. Moreover, the logP in series [1] (read-out: logP) came out at 5.66.
`Cc1cccc(C(=O)N[C@@H](Cc2ccccc2)[C@H](O)[C@H](O)[C@H](Cc2ccccc2)NC(=O)c2cccc(C)c2NC(=O)OCc2ccccc2)c1NC(=O)OCc1ccccc1` returned a logP in series [1] of 9.24.
The molecule `O=C(COCc1ccccc1)Nc1ccccc1C(=O)N[C@@H](Cc1ccccc1)[C@H](O)[C@H](O)[C@H](Cc1ccccc1)NC(=O)c1ccccc1NC(=O)COCc1ccccc1` yielded a Ki in series [2] above 10000 nM. The logP in series [1] (read-out: logP) is 6.91.
Take `O=C(CO)Nc1ccccc1C(=O)N[C@@H](Cc1ccccc1)[C@H](O)[C@H](O)[C@H](Cc1ccccc1)NC(=O)c1ccccc1NC(=O)CO`: affinity in series [2] was put at a Ki of 20 nM. In addition, in the series with CCRF-CEM, the EC50 was determined as 60000 nM. Further, in series [1] (read-out: logP), the logP is 2.52.
Regarding `O=C(Nc1c(Cl)cccc1C(=O)N[C@@H](Cc1ccccc1)[C@H](O)[C@H](O)[C@H](Cc1ccccc1)NC(=O)c1cccc(Cl)c1NC(=O)OCc1ccccc1)OCc1ccccc1`, in series [1], the logP worked out at 9.34.
`CCOC(=O)Nc1ccccc1C(=O)N[C@@H](Cc1ccccc1)[C@H](O)[C@H](O)[C@H](Cc1ccccc1)NC(=O)c1ccccc1NC(=O)OCC`: the inhibition constant (Ki) entry in series [3] is reported as “Insoluble”. The logP in series [1] (read-out: logP) was found to be 6.14.
In the case of `O=C(Nc1ccccc1C(=O)N[C@@H](Cc1ccccc1)[C@H](O)[C@H](O)[C@H](Cc1ccccc1)NC(=O)c1ccccc1NC(=O)OCc1ccccn1)OCc1ccccn1`, in the series with CCRF-CEM, a half-maximal response (EC50) required 13 nM. Moreover, the logP in series [1] (read-out: logP) was 6.49. Further, the CC50 in series [4] was 35000 nM.
In series [2], `O=C(Nc1ccccc1C(=O)N[C@@H](Cc1ccccc1)C[C@H](O)[C@H](Cc1ccccc1)NC(=O)c1ccccc1NC(=O)OCc1cccnc1)OCc1cccnc1` returned a Ki of 0.26 nM. The molecule also registered an EC50 in the series with CCRF-CEM of 140 nM. Further, in series [1] (read-out: logP), the logP came out at 5.86.
In the series on CCRF-CEM, `CC(=O)Nc1ccccc1C(=O)N[C@@H](Cc1ccccc1)[C@H](O)[C@H](O)[C@H](Cc1ccccc1)NC(=O)c1ccccc1NC(C)=O` came in with an EC50 above 100000 nM. In series [1] (read-out: logP), the log partition coefficient (logP) is 4.32.
With `O=C(Nc1ncccc1C(=O)N[C@@H](Cc1ccccc1)[C@H](O)[C@H](O)[C@H](Cc1ccccc1)NC(=O)c1cccnc1NC(=O)OCc1ccccc1)OCc1ccccc1`, in series [1] (read-out: logP), the logP worked out at 7.87.
In series [2], `O=C(Nc1ccccc1C(=O)N[C@@H](Cc1ccccc1)C[C@H](O)[C@H](Cc1ccccc1)NC(=O)c1ccccc1NC(=O)OCc1ccccn1)OCc1ccccn1` came in with a Ki of 0.07 nM. This molecule yielded an EC50 with CCRF-CEM of 56 nM. Moreover, in series [1] (read-out: logP), the lipophilicity (logP) was 6.61. The CC50 in series [4] was above 50000 nM.
With `O=C(Nc1c(O)cccc1C(=O)N[C@@H](Cc1ccccc1)[C@H](O)[C@H](O)[C@H](Cc1ccccc1)NC(=O)c1cccc(O)c1NC(=O)OCc1ccccc1)OCc1ccccc1`, the lipophilicity (logP) in series [1] (read-out: logP) was 7.96.
Regarding `O=C(Nc1ccccc1C(=O)N[C@@H](Cc1ccccc1)C[C@H](O)[C@H](Cc1ccccc1)NC(=O)c1ccccc1NC(=O)OCc1ccncc1)OCc1ccncc1`, in series [2], the Ki is 0.45 nM. This molecule also gave an EC50 in the series on CCRF-CEM of 2600 nM. Also, in series [1] (read-out: logP), the logP was 5.39.
Consider `O=C(Nc1ccccc1C(=O)N[C@@H](Cc1ccccc1)C[C@H](O)[C@H](Cc1ccccc1)NC(=O)c1ccccc1NC(=O)OCc1ccccc1)OCc1ccccc1`, for which the logP in series [1] (read-out: logP) is 8.28.
With `O=CNc1ccccc1C(=O)N[C@@H](Cc1ccccc1)[C@H](O)[C@H](O)[C@H](Cc1ccccc1)NC(=O)c1ccccc1NC=O`, the Ki in series [2] was found to be 1.2 nM. A half-maximal effect in the series with CCRF-CEM (EC50) was put at 900 nM. Further, the logP in series [1] (read-out: logP) was determined as 4.89.
